Holding throughout (assay type): cell-based
Experiment [1] deals with T1, PPARγ (Rattus norvegicus, UniProt O88275).
T1 construct: expressed in transfected cells
T1 sequence (O88275 1-505): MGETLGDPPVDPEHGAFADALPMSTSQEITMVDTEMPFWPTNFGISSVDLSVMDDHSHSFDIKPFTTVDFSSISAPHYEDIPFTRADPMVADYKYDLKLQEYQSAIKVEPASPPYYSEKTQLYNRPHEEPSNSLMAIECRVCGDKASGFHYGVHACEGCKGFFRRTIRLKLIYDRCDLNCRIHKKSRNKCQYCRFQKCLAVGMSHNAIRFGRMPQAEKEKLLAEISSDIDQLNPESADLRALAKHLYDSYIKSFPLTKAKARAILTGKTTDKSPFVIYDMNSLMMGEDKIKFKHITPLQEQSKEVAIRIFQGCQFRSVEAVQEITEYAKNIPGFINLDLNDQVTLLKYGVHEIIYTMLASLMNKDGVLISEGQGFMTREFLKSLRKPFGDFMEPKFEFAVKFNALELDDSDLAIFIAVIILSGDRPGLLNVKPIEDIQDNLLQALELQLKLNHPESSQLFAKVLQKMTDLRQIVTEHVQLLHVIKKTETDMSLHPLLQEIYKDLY
Kind of experiment: PPARγ ligand activity, PPRE-luciferase reporter in CHO/PPARγ/PPRE cells. To be noted: Table 4; positive control run beside each sample; 25 μM. The source says:
CHO cells used for measurement of PPARγ ligand activity were obtained in the following manner.
A PPAR reporter plasmid (pPPRE-Luc) was derived from a reporter plasmid, pGL3 (Promega), which contains the SV40 promoter gene and the firefly luciferase gene by being modified to have 3 copies of a PPAR-responsive sequence (PPRE) upstream of the SV40 promoter gene. A PPARγ expression plasmid (pKD-rPPARγ) was obtained by inserting the rat PPARγ gene into an SV40 promoter-driven expression plasmid for mammalian cells. pPPRE-Luc and pKD-rPPARγ were co-transfected into CHO(dhfr-) cells (dihydrofolate reductase-deficient cell line of Chinese hamster ovary cells) using Lipofectamine (Invitorgen). The cells were cultured in D-MEM medium (GIBCO) almost free from thymidine and containing dialyzed fetal bovine serum (GIBCO) to thereby obtain a stable transformant (CHO/PPARγ/PPRE) retaining pPPRE-Luc and pKD-rPPARγ.
The above cells were seeded in 96-well culture plates at 1×10^4 cells/well and cultured at 37° C. under 5% CO2 for 24 hours. […] After washing with phosphate-buffered saline (PBS-), the cells were lysed with a cytolysis solution (Cell Culture Lysis Reagent: Promega) and measured for the luminescence intensity of luciferase with a multilabel counter (Wallac) in the presence of a Luciferase Assay Reagent (Promega). […]
In general terms: Reporter assays use an easily measured gene product as a stand-in for the process of interest.

Experiment [2] addresses T2, PPARδ (Mus musculus, UniProt P35396).
T2 construct: expressed in transfected cells; host or cells: HepG2 cells (human liver cancer-derived)
T2 sequence (P35396 1-440): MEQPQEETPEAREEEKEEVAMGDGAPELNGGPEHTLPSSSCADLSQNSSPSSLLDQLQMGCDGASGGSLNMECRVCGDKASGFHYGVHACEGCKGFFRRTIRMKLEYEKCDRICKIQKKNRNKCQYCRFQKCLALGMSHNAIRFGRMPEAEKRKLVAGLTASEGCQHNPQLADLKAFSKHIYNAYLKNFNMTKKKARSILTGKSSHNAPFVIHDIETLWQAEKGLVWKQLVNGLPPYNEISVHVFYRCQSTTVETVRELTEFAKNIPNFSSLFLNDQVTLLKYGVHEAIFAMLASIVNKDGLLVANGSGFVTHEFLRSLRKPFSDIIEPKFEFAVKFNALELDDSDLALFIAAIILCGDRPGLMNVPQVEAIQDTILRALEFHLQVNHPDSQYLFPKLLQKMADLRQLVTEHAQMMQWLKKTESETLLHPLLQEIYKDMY
Nature of the experiment: PPARδ ligand activity, GAL4::mPPARδ luciferase reporter assay in HepG2 cells. On the procedure:
HepG2 cells (human liver cancer-derived cultured cells) were seeded in 96-well culture plates at 1×10^4 cells/well and cultured at 37° C. under 5% CO2 for 24 hours. The medium used was RPMI1640 (Nissui Pharmaceutical Co., Ltd., Japan) containing 10% FBS (fetal bovine serum; Equitech-Bio) and 0.3 g/L L-Glutamine (Nissui Pharmaceutical Co., Ltd., Japan). These cells were washed with OPTI-MEM (Gibco) and then transfected with pBIND/GAL4::mPPARδ and pG51uc (Promega). […]
At about 24 hours after transfection, the medium was replaced with another medium containing a plant extract, followed by culturing for 24 hours. […] After washing with phosphate-buffered saline (PBS—), the cells were lysed with a cytolysis solution (Cell Culture Lysis Reagent: Promega) and measured for the luminescence intensity of luciferase with a multilabel counter (Wallac) in the presence of a Luciferase Assay Reagent (Promega). […] For assessment of ligand activity, the ratio of luminescence intensity in a sample to that in the control (vehicle control) was defined as the luminescence ratio of PPARδ ligand activity in the sample, and a sample showing a value of 1.3 or greater was determined as having PPARδ ligand activity.
The ethanol extract of each plant obtained in Sample Preparation Example 2 was measured for its PPARγ ligand activity in the same manner as shown in Example 1. […]

In experiment [3] the target is T3, PPARα (Mus musculus, UniProt P23204).
T3 construct: expressed in transfected cells; host or cells: HepG2 cells (human liver cancer-derived)
T3 sequence (P23204 1-468): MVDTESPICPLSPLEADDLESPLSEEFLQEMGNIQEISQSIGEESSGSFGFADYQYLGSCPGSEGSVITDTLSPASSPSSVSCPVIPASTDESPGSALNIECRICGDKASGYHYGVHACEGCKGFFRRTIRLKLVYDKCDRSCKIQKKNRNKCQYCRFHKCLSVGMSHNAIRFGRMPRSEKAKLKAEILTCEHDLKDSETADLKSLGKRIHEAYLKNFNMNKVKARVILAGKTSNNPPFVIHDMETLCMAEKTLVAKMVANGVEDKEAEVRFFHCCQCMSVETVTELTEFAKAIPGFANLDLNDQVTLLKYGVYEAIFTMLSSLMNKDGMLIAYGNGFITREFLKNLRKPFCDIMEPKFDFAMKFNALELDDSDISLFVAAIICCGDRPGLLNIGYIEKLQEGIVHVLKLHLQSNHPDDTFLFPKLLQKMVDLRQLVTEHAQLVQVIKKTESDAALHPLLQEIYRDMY
Kind of experiment: PPARα ligand activity, GAL4::mPPARα luciferase reporter assay in HepG2 cells. The following applies: Table 3; positive control run beside each sample; 25 μM. On the procedure:
HepG2 cells (human liver cancer-derived cultured cells) were seeded in 96-well culture plates at 1×10^4 cells/well and cultured at 37° C. under 5% CO2 for 24 hours. The medium used was RPMI1640 (Nissui Pharmaceutical Co., Ltd., Japan) containing 10% FBS (fetal bovine serum; Equitech-Bio) and 0.3 […] Pharmaceutical Co., Ltd., Japan). […] At about 24 hours after transfection, the medium was replaced with another medium containing a plant extract, followed by culturing for 24 hours. As a vehicle control, DMSO was used and added in 1/100 volume to the medium. After washing with phosphate-buffered saline (PBS-), the cells were lysed with a cytolysis solution (Cell Culture Lysis Reagent: Promega) and measured for the luminescence intensity of luciferase with a multilabel counter (Wallac) in the presence of a Luciferase Assay Reagent (Promega). On the other hand, a synthetic PPARδ agonist, L-165041 (Sigma, […]), was used as a positive control. […] On the other hand, a synthetic PPARα agonist, WY-14643 (Sigma, 25 μM), was used as a positive control.

Values joined by “and” are separate entries in the source; they are usually repeats but may differ in a detail not shown here. Identical values can stand only once.

For `CC1(COc2ccc(CC3SC(=O)NC3=O)cc2)CCCCC1` (stereo not shown) [Ciglitizone], in experiment [1], the “Luminescence ratio in Ciglitizone” value is 2.2 and 2.5 and 2.6 and 2.7 and 3.0 and 2.4. Consider `CCCc1c(OCCCOc2ccc(OCC(=O)O)cc2)ccc(C(C)=O)c1O` [L-165041], for which the “Luminescence ratio in L-165041” value was 4.5 and 4.9 and 6.1 and 6.2 and 5.2 and 4.8 and 4.7 in experiment [2] (Table 5, positive control run beside each ethanol extract); 4.5 and 3.8 and 6.2 and 5.8 in experiment [2] (Table 6, positive control run beside each hot water extract).

Take `Cc1cccc(Nc2cc(Cl)nc(SCC(=O)O)n2)c1C` [WY-14643]: the “Luminescence ratio in WY-14643” value in experiment [3] was 4.2 and 4.4 and 7.6.

The values are drawn from patent US20100249248A1, “LIGAND AGENTS FOR PEROXISOME PROLIFERATOR-ACTIVATED RECEPTORS (PPARs)” (Suntory Holdings Limited, priority 2007, published 2010).
